According to patent publication US11541065B2, “Compositions and methods for treating brain injury” (UNM RAINFOREST INNOVATIONS, priority 2018, dated 2023):

Legend:
[1] = test system: rat cortical neuronal cultures; assay: Neuronal cell death by Hoechst DNA staining, rat cortical neuron cultures; format: cell-based; conditions: rat neurons, with NVP-AAM077 30 nM or PD98059 15 μM
Description: (§1) Neurons were subjected to staining with Hoechst 33342 dye for 15 minutes, washed extensively with PBS, and analyzed using fluorescent microscopy to assess nuclear damage. Imaging was performed with a Zeiss Axiovert 200M fluorescence microscope with attached AxioCam CCD camera using 20× objective lens (Carl Zeiss, Thomwood, N.Y.). To quantitatively assess the percentage of pyknotic nuclei a total of 1000 cells were counted for each set of experiments. Mean±SEM (n=3) were used for statistical comparison using ANOVA (Bonferroni's multiple comparison test). Differences were considered significant when p<0.05.
(§2) […] Glutamate treated cells were then maintained in their original medium for another 17 hours. For some experiments, neurons were treated with L-homocysteine or glutamate in the presence of NVP-AAM077 or PD98059. The neurons were then fixed and stained with Hoechst 33342 dye as previously described (Poddar and Paul, 2009, J Neurochem 110:1095-1106). Percentage of pyknotic nuclei was quantitatively assessed by fluorescent microscopy to determine the extent of neuronal death.

cPLA2 = cPLA2 activity in rat neuronal lysates (enzymatic assay); format: cell-based; conditions: rat neurons, L-homocysteine 50 μM four hours, with MK801 10 μM, NVP-AAM077 30 nM, Ro 25-6981 1 μM, PD98059 15 μM or SB203580 5 μM
Description: (§3) Neuron cultures were treated with or without L-homocysteine in the presence or absence of pharmacological inhibitors for the time period specified in each experiment. The medium was collected from each experimental plate and centrifuged at 1000 rpm for five minutes to remove cellular debris. Equal amounts (100 μl) of the supernatant from each sample were used to determine the amount of PGE2 using the PGE2 enzyme immunoassay kit according to the manufacturer's instructions. For measurement of cPLA2 activity, the neuronal cells from the above treated conditions were harvested in ice-cold Tris-buffered saline (pH7.4) containing sodium pyrophosphate as phosphatase inhibitor, sonicated three times with five-second bursts and two minutes on ice between intervals. The lysed cell suspensions were centrifuged at 10,000 rpm for 10 minutes and the supernatant removed. Equal amounts of protein from the supernatant (assessed using BCA protein estimation kit) were estimated for activity of cPLA2 using cPLA2 activity assay kit according to the manufacturer's protocol.
For measurement of cPLA2 activity and MCP-1 levels in cell lysates, neuronal lysates were prepared by harvesting neurons in ice-cold Tris-buffered saline (pH 7.4) containing phosphatase inhibitor, sonicated three times in five-second bursts and placed on ice (two minutes) between each burst of sonication. The lysed cell suspensions were centrifuged at 10,000 rpm (10 minutes) and the supernatant was collected in another tube. Equal amounts of protein from the supernatant were processed for cPLA2 activity assay according to the manufacturer's protocol. Equal protein from the lysates were also used to estimate MCP-1 levels using an MCP-1 ELISA kit.

COX2 = COX2 protein level in rat neuronal cultures (immunoblot); format: cell-based; conditions: rat neurons, L-homocysteine 50 μM four hours, with MK801 10 μM, NVP-AAM077 30 nM, Ro 25-6981 1 μM, PD98059 15 μM, SB203580 5 μM or Bengamide B 500 nM
Description: (§4) Equal protein from total cell lysates obtained from rat and mice neuronal cultures were resolved in 7.5% SDS-PAGE, and subjected to immunoblotting procedure as described earlier (Poddar and Paul, 2009, J Neurochem 110:1095-1106). Blots were analyzed with antibodies as described in each experiment. All primary antibodies (anti-COX2, anti-B-tubulin) and secondary-horse radish peroxidase conjugated antibody concentrations were used according to recommendations provided by the manufacturer. Signals from immune complexes in the blots were developed using West Pico supersignal chemiluminescence reagents and then captured on X-ray films. Densitometric analysis of the images was performed using the Image J software.
Rat and mice neuronal cultures were washed with PBS (pH 7.4), containing sodium pyrophosphate and sodium vanadate as phosphatase inhibitors, and harvested in SDS sample buffer (Laemmli, 1970, Nature 227:680-685). Equal protein from total cell lysates, estimated using BCA kit, was resolved by SDS-PAGE (7.5%) followed by western blotting on PVDF membranes. Immunoblot analysis was performed by first blocking with 5% non-fat dry milk for 1 h at room temperature followed by incubation with either COX2 immunoblot analysis (Poddar and Paul, 2009, J Neurochem 110:1095-1106) as described in each experiment. All primary antibodies and horseradish peroxidase conjugated secondary antibodies were used according to manufacturer's recommendations. Signals from immune complexes in the blots were developed using West Pico supersignal chemiluminescence reagents and then captured on X-ray films. Densitometric analysis of the images was performed using the NIH Image J software.

PGE2 = PGE2 release from rat neuronal cultures (enzyme immunoassay / ELISA of culture media); format: cell-based; conditions: rat neurons, L-homocysteine 50 μM four hours, with DL-AP5 200 μM, MK801 10 μM, NVP-AAM077 30 nM, Ro 25-6981 1 μM, PD98059 15 μM, SB203580 5 μM, Bengamide B 500 nM or CAY10404 100 nM
Description: as §3
For measurement of PGE2 levels and MCP-1 levels released from neurons, culture medium was collected from each experimental plate and centrifuged at 1000 rpm for five minutes to remove cellular debris. Equal volume (100 μl) of the supernatant from each sample was used to determine PGE2 level using the PGE2 ELISA kit according to the manufacturer's instructions.

[2] = test system: neuron cultures from WT and GluN2A-KO mice; assay: Neuronal cell death by Hoechst DNA staining, WT and GluN2A-KO mouse neuron cultures; format: cell-based; conditions: PD98059 15 μM
Description: as §1, §2

ERK MAPK [3] = assay: ERK MAPK phosphorylation in WT and GluN2A-KO mouse neuron cultures (immunoblot); format: cell-based, mice; conditions: both WT and GluN2A-KO mice cultures, glutamate 50 μM
From the text: (§5) Primary cortical neuronal cultures were established from embryos obtained from pregnant Sprague Dawley female rats (16-17 day gestation) as previously described (Podder and Paul, 2009, J Neurochem 110:1095-1106; Poddar and Paul, 2013, J Neurochem 124: 558-570). Primary cortical neuronal cultures were also developed from pregnant wildtype or GluN2A-knockout mice (15-16 day gestation) using similar protocols. The cells were maintained in culture for 12-14 days prior to treatment with homocysteine. L-homocysteine (200 mM stock) was prepared by alkali hydrolysis of L-homocysteine thiolactone hydrochloride followed by neutralization with 2N HCL and maintained in 0.02 mM N-Tris(hydroxymethyl)methyl-2-aminoethanesulfonicd acid (TES) buffer pH 7.4 (Poddar et al., 2001, Circulation 103:2717-2723). For receptor stimulation neurons were treated with freshly prepared 50 μM of L-homocysteine in Hank's balanced salt solution (Podder and Paul, 2009, J Neurochem 110:1095-1106; Poddar and Paul, 2013, J Neurochem 124: 558-570) containing 50 μM of glycine (Lipton et al., 1997, Proc Natl Acad Sci USA 94:5923-5928). In a subset of culture plates, pharmacological inhibitors (NVP-AAM007) were added […] prior to homocysteine addition and maintained during homocysteine treatment. Cells were processed for immunoblotting or Hoechst DNA staining.
as §4, with “(Podder” for “(Poddar”, “(anti-pERK, anti-ERK)” for “(anti-COX2, anti-B-tubulin)”
Embryos obtained from pregnant Sprague Dawley rats (16-17-day gestation) or wild type (WT) and GluN2A KO mice (15-16-day gestation) were used to establish primary cortical neuronal cultures as previously described (Poddar and Paul, 2009, J Neurochem 110:1095-1106; Poddar and Paul, 2013, J Neurochem 124:558-570; Poddar et al., 2017, J Neurochem 142:560-573). Neurons were grown on either (a) 35-mm culture dishes (MatTek Corp., Ashland, Mass.) coated overnight with poly-D-lysine (50 μg/ml) and laminin (10 μg/ml) for Ca^2+ imaging studies, (b) poly-D-lysine-coated 60 mm dishes (Corning BIOCOAT, Corning Inc., Corning, N.Y.) for biochemical studies, or (c) poly-D-lysine-coated 4-well culture slides (Corning BIOCOAT, Corning Inc., Corning, N.Y.) for cell death assay. Neurons were maintained in culture for 12-13 days before experiment. The cells were treated with freshly prepared L-homocysteine (50 μM) in Hank's balanced salt solution containing 50 μM of glycine (Lipton et al., 1997, Proceedings of the National Academy of Sciences of the United States of America 94:5923-5928; Poddar and Paul, 2009, J Neurochem 110:1095-1106; Poddar and Paul, 2013, J Neurochem 124:558-570; Poddar et al., 2017, J Neurochem 142:560-573) for the specified time periods. In a parallel series of experiments, cells were treated with glutamate (50 μM) for the specified time periods. Cells were then processed for live cell imaging, immunoblotting or cell death assay. […]

ERK MAPK [4] = assay: ERK MAPK phosphorylation in rat cortical neuron cultures (immunoblot); format: cell-based; conditions: rat neurons, glutamate 50 μM, 5, 30 or 60 minutes
From the text: as §5
as §4, with “(Podder” for “(Poddar”, “(anti-pERK, anti-ERK)” for “(anti-COX2, anti-B-tubulin)”
(§6) Embryos obtained from pregnant Sprague Dawley rats (16-17-day gestation) or wild type (WT) and GluN2A KO mice (15-16-day gestation) were used to establish primary cortical neuronal cultures as previously described (Poddar and Paul, 2009, J Neurochem 110:1095-1106; Poddar and Paul, 2013, J Neurochem 124:558-570; Poddar et al., 2017, J Neurochem 142:560-573). Neurons were grown on either (a) 35-mm culture dishes (MatTek Corp., Ashland, Mass.) coated overnight with poly-D-lysine (50 μg/ml) and laminin (10 μg/ml) for Ca^2+ imaging studies, (b) poly-D-lysine-coated 60 mm dishes (Corning BIOCOAT, Corning Inc., Corning, N.Y.) for biochemical studies, or (c) poly-D-lysine-coated 4-well culture slides (Corning BIOCOAT, Corning Inc., Corning, N.Y.) for cell death assay. Neurons were maintained in culture for 12-13 days before experiment. The cells were treated with freshly prepared L-homocysteine (50 μM) in Hank's balanced salt solution containing 50 μM of glycine (Lipton et al., 1997, Proceedings of the National Academy of Sciences of the United States of America 94:5923-5928; Poddar and Paul, 2009, J Neurochem 110:1095-1106; Poddar and Paul, 2013, J Neurochem 124:558-570; Poddar et al., 2017, J Neurochem 142:560-573) for the specified time periods. In a parallel series of experiments, cells were treated with glutamate (50 μM) for the specified time periods. Cells were then processed for live cell imaging, immunoblotting or cell death assay. In some experiments EGTA, DL-AP5, NVP-AAM077, Ro 25-6981 or PD98059 was added 15 minutes prior to L-homocysteine or glutamate treatment.
Rat and mice neuron cultures were harvested in SDS sample buffer (Laemmli, 1970, Nature 227:680-685). […]

[Ca^2+]i [5] = Intracellular Ca^2+ by Fura2 imaging, WT and GluN2A KO mouse neuronal cultures; format: cell-based, mice; conditions: neurons from both WT and GluN2A-KO mice, glutamate 50 μM
Description: as §6
[Ca^2+]i in neurons was determined using the fluorescent indicator, Fura2-AM. […] Fluorescence excitations (340 and 380 nm) were provided with Sutter LB-LS/30 Lambda xenon arc lamp and fluorescence emissions (510 nm) were captured using a CCD camera (Teledyne Photometries, Tucson, Ariz.). […] Maximum and minimum fluorescence ratios were determined from Fura2 loaded cells treated with ionomycin (5 μM) in calcium containing medium (2 mM) or in calcium free media with EGTA (0.5 mM).

[Ca^2+]i [6] = Intracellular Ca^2+ by Fura2 imaging, rat neuronal cultures; format: cell-based; conditions: rat neurons
Description: as §6
[Ca^2+]i in neurons was determined using the fluorescent indicator, Fura2-AM. Briefly, neurons were loaded with Fura2 (10 μM) in phenol red free Hank's balanced salt solution for 30 minutes at 37° C. followed by post-incubation for 20 minutes (Paul, S. and Connor, J. A., 2010, J Neurochem 114:1107-1118). Time lapse live cell imaging was performed following stimulation using a Nikon Ti Eclipse inverted microscope equipped with Tokai Hit stage top incubator maintained at 37° C. and infused with 95:5% air:CO2 mixture. Fields of 5-8 cells were imaged using a 40× oil immersion objective (Nikon). Fluorescence excitations (340 and 380 nm) were provided with Sutter LB-LS/30 Lambda xenon arc lamp and fluorescence emissions (510 nm) were captured using a CCD camera (Teledyne Photometries, Tucson, Ariz.). NIS Elements AR software was used for data acquisition and analysis. Ratiometric data (340/380 nm) from regions of interest were corrected for background and converted into estimates of [Ca^2+]i. as described previously (Paul, S. and Connor, J. A., 2010, J Neurochem 114:1107-1118) using the equation developed earlier (Grynkiewicz et al., 1985, J Biol Chem 260:3440-3450). Maximum and minimum fluorescence ratios were determined from Fura2 loaded cells treated with ionomycin (5 μM) in calcium containing medium (2 mM) or in calcium free media with EGTA (0.5 mM).

| SMILES | effect on homocysteine-mediated increase in cPLA2 activity (cPLA2) | effect on homocysteine-induced increase in COX2 protein level (COX2) | effect on homocysteine-induced PGE2 release (PGE2) | also measured |
| --- | --- | --- | --- | --- |
| COc1cccc(-c2cc(=O)c3ccccc3o2)c1N [PD98059] | significantly attenuates homocysteine-mediated increase in cPLA2 activity | significantly reduced | decreases significantly | effect on homocysteine-induced neuronal death ([1]; L-homocysteine 50 μM 18 hours): attenuates homocysteine-induced neurotoxicity; effect on glutamate induced neuronal cell death ([1]; glutamate 50 μM one hour then 17 hours in original medium): remain unaffected; effect on homocysteine-induced neurotoxicity ([2]; neurons from WT mice, L-Hcy 50 μM 18 hours): significantly reduced; effect on glutamate-induced neurotoxicity ([2]; neurons from either WT or GluN2A KO mice, glutamate 50 μM one hour then 17 hours): fails to reduce glutamate-induced neurotoxicity |
| C[C@]12N[C@H](Cc3ccccc31)c1ccccc12 [MK801] | is blocked | blocks homocysteine induced COX2 protein expression | significantly reduced |  |
| C[S+]([O-])c1ccc(-c2nc(-c3ccncc3)c(-c3ccc(F)cc3)[nH]2)cc1 (stereo not drawn) [SB203580] | significant reduction | significant reduction | significant reduction |  |
| N[C@@H](CCC(=O)O)C(=O)O [glutamate] |  |  |  | ERK MAPK phosphorylation (ERK MAPK [3]): rapid but transient increase in ERK MAPK phosphorylation; ERK MAPK phosphorylation (ERK MAPK [4]): rapid but transient increase in ERK MAPK phosphorylation; Fura2 fluorescence ratio and [Ca^2+]i ([Ca^2+]i [5]): rapid increase in Fura2 fluorescence ratio and [Ca^2+]i; increase in [Ca^2+]i ([Ca^2+]i [6]; glutamate 50 μM, within 2.5 minutes): approximately 21 fold |
| CS(=O)(=O)c1ccc(-c2noc(C(F)(F)F)c2-c2ccccc2)cc1 [CAY10404] |  |  | significantly reduced |  |
| CCCCCCCCCCCCCC(=O)O[C@H]1CC[C@H](NC(=O)[C@H](OC)[C@H](O)[C@@H](O)[C@H](O)/C=C/C(C)C)C(=O)N(C)C1 [Bengamide B] |  | attenuates homocysteine-induced increase in COX2 protein level | significant decrease in PGE2 level |  |
| O=C(O)CN(CCOCCOCCN(CC(=O)O)CC(=O)O)CC(=O)O [EGTA] |  |  |  | effect on homocysteine-induced increase in Fura2 fluorescence ratio and [Ca^2+]i ([Ca^2+]i [6]; somata and processes, L-homocysteine 50 μM 60 minutes, with EGTA 2 mM, DL-AP5 200 μM, NVP-AAM077 30 nM or Ro 25-6981 1 μM): are blocked |
